Source: patent US3983105A, “Penicillins” (Bayer Aktiengesellschaft, priority 1971, dated 1976)
Several values for one entry are separate records, joined by “and”; a condition that tells them apart may be missing. Identical values can stand only once.

What was measured:
Assay type in all cases: cell-based
[1] = system: Pseudomonas aeruginosa; assay: MIC, test tube serial dilution, Pseudomonas aeruginosa
[2] = system: Klebsiella-Aerobacter; assay: MIC, test tube serial dilution, Klebsiella-Aerobacter
[3] = system: Escherichia coli; assay: MIC, test tube serial dilution, Escherichia coli
[4] = system: Proteus morganii; assay: MIC, test tube serial dilution, Proteus morganii
[5] = system: Streptococcus faecalis; assay: MIC, test tube serial dilution, Streptococcus faecalis
[6] = system: Staphylococcus aureus; assay: MIC, test tube serial dilution, Staphylococcus aureus
[7] = system: Proteus vulgaris; assay: MIC, test tube serial dilution, Proteus vulgaris
[8] = strain 1756 (BRL 1 756), 24 hours, 37°C

Molecule | MIC ([1]; in µg/mL (unit assumed)) | MIC ([2]; in µg/mL (unit assumed)) | MIC ([3]; strain 183/58, 24 hours, 37°C) | MIC ([3]; strain A 261, 24 hours, 37°C) | MIC ([4]; unit assumed) | MIC ([5]; unit assumed) | MIC [6, 8] | further results
CC1(C)S[C@@H]2[C@H](NC(=O)[C@H](NC(=O)N3CCN(C(=O)c4ccccc4)C3=O)c3ccccc3)C(=O)N2[C@H]1C(=O)O [Example 12, Sodium D(-)-α-[(3-benzoyl-imidazolidin-2-on-1-yl)-carbonylamino]-benzylpenicillin] | 32 | 8 | < 1 U/ml | 64 U/ml | 8 µg/mL | 32 µg/mL | 256 U/ml | –
CC1(C)S[C@@H]2[C@H](NC(=O)[C@H](NC(=O)N3CCN(C(=O)c4ccco4)C3=O)c3ccccc3)C(=O)N2[C@H]1C(=O)O [Example 13, Sodium D(-)-α-[(3-furoyl(2)-imidazolidin-2-on-1-yl)-carbonylamino]-benzylpenicillin] | – | 8 | < 1 U/ml | – | – | – | 128 U/ml | MIC ([1]; strain F 41, 24 hours, 37°C): 16 U/ml; MIC ([1]; strain Walter, 24 hours, 37°C): 16 U/ml; MIC ([5]; ATCC 9790, 24 hours, 37°C): 16 U/ml
CC1(C)S[C@@H]2[C@H](NC(=O)[C@H](NC(=O)N3CCN(C(N)=O)C3=O)c3ccccc3)C(=O)N2[C@H]1C(=O)O [Example 5, Sodium D(-)-α-[(3-aminocarbonyl-imidazolidin-2-on-1-yl)-carbonylamino]-benzylpenicillin] | 32 | 32 | 4 U/ml | 256 U/ml | 32 µg/mL | 32 µg/mL | > 256 U/ml | MIC ([2]; strain 63, 24 hours, 37°C): 16 U/ml
CC1(C)S[C@@H]2[C@H](NC(=O)[C@H](NC(=O)N3CCN(C(=O)OC4CCCCC4)C3=O)c3ccccc3)C(=O)N2[C@H]1C(=O)O [Example 23, Sodium D(-)-α-[(3-cyclohexyloxycarbonyl-imidazolidin-2-on-1-yl)-carbonylamino]-benzylpenicillin] | 32 | 8 | < 1 U/ml | – | – | 32 µg/mL | 64 U/ml | MIC ([1]; strain Bonn, 24 hours, 37°C): 16 U/ml
CC1(C)S[C@@H]2[C@H](NC(=O)C(NC(=O)N3CCN(S(C)(=O)=O)C3=O)c3cccs3)C(=O)N2[C@H]1C(=O)O (stereo partly drawn) [Penicillin No. 3 (Table 3), Sodium D,L-α-[(3-methylsulphonyl-imidazolidin-2-on-1-yl)-carbonylamino]-α-thienyl-(2)-mthylpenicillin] | – | – | – | – | – | 32 µg/mL | – | MIC ([1]; Table 3, strain F 41): 64 U/ml; MIC ([1]; Table 3, strain Walter): 64 U/ml; MIC ([2]; Table 3, strain 63): 256 U/ml; MIC ([2]; Table 3, strain K 10): 16 U/ml; MIC ([3]; Table 3, strain 14): < 1 U/ml; MIC ([3]; Table 3, strain 183/58): 4 U/ml; MIC ([3]; Table 3, strain A 261): 256 U/ml; MIC ([3]; Table 3, strain C 165): 4 U/ml; MIC ([4]; Table 3, strain 932): 16 U/ml; MIC ([7]; Table 3, strain 1017): 4 U/ml; MIC ([6]; Table 3, strain 133): < 1 U/ml; MIC ([6]; Table 3, strain 1756E): 128 U/ml
CC(=O)N1CCN(C(=O)NC(C(=O)N[C@@H]2C(=O)N3[C@@H]2SC(C)(C)[C@@H]3C(=O)O)c2cccs2)C1=O (stereo partly shown) [Penicillin No. 9 (Table 3)] | – | – | – | – | – | – | – | MIC ([1]; Table 3, strain F 41): 64 U/ml; MIC ([1]; Table 3, strain Walter): 64 U/ml; MIC ([2]; Table 3, strain 63): 128 U/ml; MIC ([2]; Table 3, strain K 10): 32 U/ml; MIC ([3]; Table 3, strain 14): 2 U/ml; MIC ([3]; Table 3, strain 183/58): 8 U/ml; MIC ([3]; Table 3, strain A 261): 512 U/ml; MIC ([3]; Table 3, strain C 165): 8 U/ml; MIC ([4]; Table 3, strain 932): 8 U/ml; MIC ([7]; Table 3, strain 1017): 8 U/ml; MIC ([5]; Table 3, ATCC 9790): 64 U/ml; MIC ([6]; Table 3, strain 133): 2 U/ml; MIC ([6]; Table 3, strain 1756E): 64 U/ml
Sodium D(-)-α-[(3-methylsulphonyl-4- or 5-methyl-imidazolidin-2-on-1-yl)-carbonylamino]-benzylpenicillin [Example 32] | 256 and 128 | 32 and 16 | – | – | 8 µg/mL | 16 µg/mL | – | MIC ([7]; unit assumed): 8 µg/mL
CC1(C)S[C@@H]2[C@H](NC(=O)[C@H](NC(=O)N3CCN(S(=O)(=O)c4ccccc4)C3=O)c3ccccc3)C(=O)N2[C@H]1C(=O)O [Example 27, Sodium D(-)-α-[(2-oxo-3-benzenesulphonyl-1-imidazolidinyl)-carbonylamino]-benzylpenicillin] | 32 | – | 0.5 U/ml | > 256 U/ml | – | – | 64 U/ml | –
Cc1ccc(S(=O)(=O)NC2=NCCN2C(=O)N[C@@H](C(=O)N[C@@H]2C(=O)N3[C@@H]2SC(C)(C)[C@@H]3C(=O)O)c2ccccc2)cc1 [Example 25, Sodium D(-)-α-[(2-tosylamino-imidazolin(2)-1-yl)-carbonylamino]-benzylpenicillin] | 32 | – | 32 U/ml | > 256 U/ml | – | – | 64 U/ml | MIC ([1]; strain Bonn, 24 hours, 37°C): 64 U/ml; MIC ([2]; strain 63, 24 hours, 37°C): 64 U/ml; MIC ([2]; strain K 10, 24 hours, 37°C): 64 U/ml; MIC ([3]; strain C 165, 24 hours, 37°C): 16 U/ml; MIC ([7]; strain 1017, 24 hours, 37°C): 16 U/ml; MIC ([5]; ATCC 9790, 24 hours, 37°C): 16 U/ml
CC1(C)S[C@@H]2[C@H](NC(=O)[C@H](NC(=O)N3CCN(C(=O)Oc4ccccc4)C3=O)c3ccccc3)C(=O)N2[C@H]1C(=O)O [Example 11, Sodium D(-)-α-[(3-phenoxycarbonyl-imidazolidin-2-on-1-yl)-carbonylamino]-benzylpenicillin] | 32 and 16 | 4 | – | – | 8 µg/mL | 16 µg/mL | – | MIC ([7]; unit assumed): 16 µg/mL
CCCC(=O)N1CCN(C(=O)N[C@@H](C(=O)N[C@@H]2C(=O)N3[C@@H]2SC(C)(C)[C@@H]3C(=O)O)c2ccccc2)C1=O [Example 14, Sodium D(-)-α-[(3-n-butyryl-imidazolidin-2-on-1-yl)-carbonylamino]-benzylpenicillin] | 32 | – | < 1 U/ml | – | – | 32 µg/mL | 128 U/ml | –
CC1(C)S[C@@H]2[C@H](NC(=O)[C@H](NC(=O)N3CCN(C(=O)Nc4ccccc4)C3=O)c3ccccc3)C(=O)N2[C@H]1C(=O)O [Example 10, Sodium D(-)-α-[(3-phenylaminocarbonyl-imidazolidin-2-on-1-yl)-carbonylamino]-benzylpenicillin] | – | 8 | 4 U/ml | > 256 U/ml | – | 128 µg/mL | > 256 U/ml | MIC ([1]; strain Bonn, 24 hours, 37°C): 64 U/ml; MIC ([1]; strain Walter, 24 hours, 37°C): 256 U/ml; MIC ([7]; unit assumed): 8 µg/mL
CC1(C)S[C@@H]2[C@H](NC(=O)[C@H](NC(=O)N3CCN(C(=O)N4CCCC4)C3=O)c3ccccc3)C(=O)N2[C@H]1C(=O)O [Example 8, Sodium D(-)-α-[(3-pyrrolidyl-N-carbonyl-imidazolidin-2-on-1-yl)-carbonylamino]-benzylpenicillin] | 32 | – | 4 U/ml | – | 64 µg/mL | 128 µg/mL | 128 U/ml | MIC ([7]; unit assumed): 32 µg/mL
CC1(C)S[C@@H]2[C@H](NC(=O)[C@H](NC(=O)N3CCN=C3NS(C)(=O)=O)c3ccccc3)C(=O)N2[C@H]1C(=O)O [Example 19, Sodium D(-)-α-[(2-methylsulphonylamino-imidazolin(2)-1-yl)-carbonylamino]-benzylpenicillin] | – | – | 16 U/ml | – | 32 µg/mL | – | – | MIC ([7]; strain 1017, 24 hours, 37°C): 16 U/ml; MIC ([7]; unit assumed): 16 µg/mL
CCC(=O)N1CCN(C(=O)N[C@@H](C(=O)N[C@@H]2C(=O)N3[C@@H]2SC(C)(C)[C@@H]3C(=O)O)c2ccccc2)C1=O [Example 26, Sodium D(- )-α-[(2-oxo-3-propionyl-1-imidazolidinyl)-carbonylamino]-benzylpenicillin] | 32 | 32 | 4 U/ml | > 256 U/ml | – | 8 µg/mL | 64 U/ml | MIC ([1]; strain Walter, 24 hours, 37°C): 64 U/ml; MIC ([2]; strain 63, 24 hours, 37°C): 16 U/ml
CC(C)OC(=O)N1CCN(C(=O)N[C@@H](C(=O)N[C@@H]2C(=O)N3[C@@H]2SC(C)(C)[C@@H]3C(=O)O)c2ccccc2)C1=O [Example 7, Sodium D(-)-α-[(3-i-propyloxycarbonyl-imidazolidin-2-on-1-yl)-carbonylamino]-benzylpenicillin] | 8 | – | < 1 U/ml | > 256 U/ml | – | – | 128 U/ml | MIC ([1]; strain Bonn, 24 hours, 37°C): 16 U/ml; MIC ([7]; strain 1017, 24 hours, 37°C): 16 U/ml; MIC ([5]; ATCC 9790, 24 hours, 37°C): 16 U/ml
CC1(C)S[C@@H]2[C@H](NC(=O)[C@H](NC(=O)N3CCN(S(C)(=O)=O)C3=O)c3ccccc3)C(=O)N2[C@H]1C(=O)O [Penicillin No. 1 (Table 3), Sodium D(-)-α-[(3-methylsulphonyl-imidazolidin-2-on-1-yl)-carbonylamino]-benzylpenicillin] | – | – | – | – | – | – | – | MIC ([1]; Table 3, strain F 41): 50 U/ml; MIC ([1]; Table 3, strain Walter): 50 U/ml; MIC ([2]; Table 3, strain 63): 12.5 U/ml; MIC ([2]; Table 3, strain K 10): 6.2 U/ml; MIC ([3]; Table 3, strain 14): < 0.8 U/ml; MIC ([3]; Table 3, strain 183/58): 1.6 U/ml; MIC ([3]; Table 3, strain A 261): 200 U/ml; MIC ([7]; Table 3, strain 1017): 3.1 U/ml; MIC ([5]; Table 3, ATCC 9790): 25 U/ml; MIC ([6]; Table 3, strain 133): < 0.8 U/ml; MIC ([6]; Table 3, strain 1756E): 400 U/ml
CC(C)(C)C(=O)N1CCN(C(=O)N[C@@H](C(=O)N[C@@H]2C(=O)N3[C@@H]2SC(C)(C)[C@@H]3C(=O)O)c2ccccc2)C1=O [Example 21, Sodium D(-)-α-[(3-pivaloyl-imidazolidin-2-on-1-yl)-carbonylamino]-benzylpenicillin] | 32 | 8 | < 1 U/ml | 256 U/ml | – | – | 256 U/ml | MIC ([5]; ATCC 9790, 24 hours, 37°C): 64 U/ml
CC1(C)S[C@@H]2[C@H](NC(=O)[C@H](NC(=O)N3CCN(C(=O)NS(C)(=O)=O)C3=O)c3ccccc3)C(=O)N2[C@H]1C(=O)O [Example 30, Sodium D(-)-α-[3-(methylsulphonyl-amino-carbonyl)-imidazolidinon-2-yl-1]-carbonylamino-benzylpenicillin] | 32 | 128 | 64 U/ml | > 256 U/ml | 8 µg/mL | 128 µg/mL | 256 U/ml | MIC ([2]; strain 63, 24 hours, 37°C): 64 U/ml
